Assay: Stability in neutral aqueous dispersion, followed by 19F NMR
Assay type: physicochemical
Details: aqueous dispersion with ammonium perfluorononanoate surfactant; heated in an oil bath at 100°C for 2 hr
Description: A solution of 2.41 g of ammonium perfluorononanoate (surfactant) in 1-L of deionized water was processed for 5 minutes through a Microfluidizer™ Model 110T with 4.14 g of n-perfluorobutanesulfonyl chloride. The mixture was cooled by passing though a coil chilled in ice water during the processing. A clear mixture was obtained. […] A second aliquot of the solution was heated in an oil bath at 100°C for 2 hr and then analyzed by ^19F NMR. […] A more concentrated mixture was prepared by adding 10.4 g of n-perfluorobutanesulfonyl chloride to a solution of 0.5 g ammonium perfluorononanoate in 100 mL of deionized water with processing through the Microfluidizer™.

Structure (SMILES): O=S(=O)(Cl)C(F)(F)C(F)(F)C(F)(F)C(F)(F)F [n-perfluorobutanesulfonyl chloride]
- 19F NMR spectrum after heating (stability in a neutral aqueous mixture): essentially unchanged
